Experimental data reported in patent US20100298141A1, “SUBSTITUTED PYRIDINE N-OXIDE HERBICIDES” (E. I. DU PONT DE NEMOURS AND COMPANY, priority 2007, published 2010).

What was measured:
[1] = tested on: Surinam grass; assay: Test C pre-/postemergence test; type: in vivo, Brachiaria decumbens; conditions: for Plant response rating, Surinam Grass: 31 g ai/ha, scale 0 to 100 (0 no effect, 100 complete control)
Outline: (§1)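 Test chemicals were formulated with surfactant in a non-phytotoxic solvent and sprayed both on freshly planted seeds (preemergence) and on 1- to 4-leaf plants of 2–18 cm (postemergence). Flooded-paddy pots received compound directly into 3 cm of standing water, maintained for the test.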

[2] = tested on: velvetleaf; assay: Test C pre-/postemergence test; type: in vivo, Abutilon theophrasti; conditions: for Plant response rating, Velvetleaf: 31 g ai/ha, scale 0 to 100 (0 no effect, 100 complete control)
Outline: as §1

[3] = tested on: downy brome; assay: Test C pre-/postemergence test; type: in vivo, Bromus tectorum
Outline: as §1

[4] = tested on: redroot pigweed; assay: Test A pre-/postemergence greenhouse test; type: in vivo, Amaranthus retroflexus; conditions: for Plant response rating, Pigweed: 0 to 100 scale where 0 is no effect and 100 is complete control; for Pigweed plant response rating: 0 to 100 scale
Outline: (§2)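 Greenhouse herbicide screen, pre- and postemergence in parallel. Soil: loam plus sand. Formulation: non-phytotoxic solvent mix with surfactant. Postemergence stage: one to two leaves, 2–10 cm height. Evaluation: visual injury, compared with untreated controls, about 10 days after treatment.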

[5] = tested on: johnsongrass; assay: Test C pre-/postemergence test; type: in vivo, Sorghum halepense; conditions: for Plant response rating, Johnsongrass: 31 g ai/ha, scale 0 to 100 (0 no effect, 100 complete control)
Outline: as §1

[6] = tested on: cocklebur; assay: Test C pre-/postemergence test; type: in vivo, Xanthium strumarium; conditions: for Plant response rating, Cocklebur: 31 g ai/ha, scale 0 to 100 (0 no effect, 100 complete control)
Outline: as §1

[7] = tested on: barnyardgrass; assay: Test A pre-/postemergence greenhouse test; type: in vivo, Echinochloa crus-galli; conditions: for Plant response rating, Barnyardgrass: 0 to 100 scale where 0 is no effect and 100 is complete control; for Barnyardgrass plant response rating: 0 to 100 scale
Outline: as §2

[8] = tested on: duck salad; assay: Test C flooded paddy test; type: in vivo, Heteranthera limosa; conditions: Flood
Outline: (§3)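 Greenhouse pots flooded to 3 cm above soil at time of treatment received compound via the water, which stayed at that level.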

[9] = tested on: lambsquarters; assay: Test C pre-/postemergence test; type: in vivo, Chenopodium album; conditions: for Plant response rating, Lambsquarters: 31 g ai/ha, scale 0 to 100 (0 no effect, 100 complete control)
Outline: as §1

[10] = tested on: rice; assay: Test C flooded paddy test; type: in vivo, Oryza sativa; conditions: Flood
Outline: as §3

[11] = tested on: eastern black nightshade; assay: Test C pre-/postemergence test; type: in vivo, Solanum ptycanthum; conditions: for Plant response rating, Nightshade: 31 g ai/ha, scale 0 to 100 (0 no effect, 100 complete control)
Outline: as §1

[12] = tested on: giant foxtail; assay: Test C pre-/postemergence test; type: in vivo, Setaria faberii; conditions: for Plant response rating, Foxtail, Giant: 31 g ai/ha, scale 0 to 100 (0 no effect, 100 complete control)
Outline: as §1

[13] = tested on: velvetleaf; assay: Test A pre-/postemergence greenhouse test; type: in vivo, Abutilon theophrasti; conditions: for Plant response rating, Velvetleaf: 0 to 100 scale where 0 is no effect and 100 is complete control; for Velvetleaf plant response rating: 0 to 100 scale
Outline: as §2

[14] = tested on: crabgrass; assay: Test C pre-/postemergence test; type: in vivo, Digitaria sanguinalis; conditions: for Plant response rating, Crabgrass, Large: 31 g ai/ha, scale 0 to 100 (0 no effect, 100 complete control)
Outline: as §1

[15] = tested on: green foxtail; assay: Test C pre-/postemergence test; type: in vivo, Setaria viridis; conditions: for Plant response rating, Foxtail, Green: 31 g ai/ha, scale 0 to 100 (0 no effect, 100 complete control)
Outline: as §1

[16] = tested on: wild oat; assay: Test C pre-/postemergence test; type: in vivo, Avena fatua; conditions: for Plant response rating, Oat, Wild: 31 g ai/ha, scale 0 to 100 (0 no effect, 100 complete control)
Outline: as §1

[17] = tested on: common ragweed; assay: Test C pre-/postemergence test; type: in vivo, Ambrosia elation; conditions: for Plant response rating, Ragweed: 31 g ai/ha, scale 0 to 100 (0 no effect, 100 complete control)
Outline: as §1

[18] = tested on: kochia; assay: Test C pre-/postemergence test; type: in vivo, Kochia scoparia; conditions: for Plant response rating, Kochia: 31 g ai/ha, scale 0 to 100 (0 no effect, 100 complete control)
Outline: as §1

[19] = 62 g ai/ha, Preemergence, scale 0 to 100
[20] = 125 g ai/ha, preemergence, scale 0 (no effect) to 100 (complete control)
[21] = preemergence, 250 g ai/ha, scale 0 (no effect) to 100 (complete control)
[22] = Postemergence, 500 g ai/ha, 0 is no effect, 100 is complete control
[23] = Preemergence, 125 g ai/ha, 0 no effect, 100 complete control
[24] = 62 g ai/ha, scale 0 to 100 (0 no effect, 100 complete control)
[25] = 250 g ai/ha, scale 0 to 100, 0 no effect, 100 complete control, 13 to 15 days

Cc1cc([S+]([O-])Cc2c(C(F)(F)F)nn(C)c2OCC(F)(F)F)[n+]([O-])cc1Cl (stereo not drawn) [Compound 70]
Surinam Grass plant response rating [1, 19]: 85 | Surinam Grass plant response rating [1, 20]: 90 | Plant response rating, Surinam Grass ([1]; Preemergence): 65 | Surinam Grass plant response rating [1, 21]: 100 | Velvetleaf plant response rating [2, 19]: 85 | Velvetleaf plant response rating [2, 20]: 100 | Plant response rating, Velvetleaf ([2]; Preemergence): 35 | Velvetleaf plant response rating [2, 21]: 100 | Bromegrass, Downy plant response rating [3, 19]: 80 | Bromegrass, Downy plant response rating [3, 20]: 100 | Bromegrass, Downy plant response rating [3, 21]: 100 | Plant response rating, Pigweed ([4]; Postemergence, 125 g ai/ha): 40 | Pigweed plant response rating [4, 22]: 80 | Pigweed plant response rating [4, 23]: 90 | Plant response rating, Pigweed ([4]; Preemergence, 500 g ai/ha): 100 | Johnsongrass plant response rating [5, 19]: 100 | Johnsongrass plant response rating [5, 20]: 100 | Plant response rating, Johnsongrass ([5]; Preemergence): 70 | Johnsongrass plant response rating [5, 21]: 100 | Cocklebur plant response rating [6, 19]: 0 | Cocklebur plant response rating [6, 20]: 0 | Plant response rating, Cocklebur ([6]; Preemergence): 0 | Cocklebur plant response rating [6, 21]: 0 | Plant response rating, Barnyardgrass ([7]; Postemergence, 125 g ai/ha): 70 | Barnyardgrass plant response rating [7, 22]: 90 | Barnyardgrass plant response rating [7, 23]: 80 | Plant response rating, Barnyardgrass ([7]; Preemergence, 500 g ai/ha): 100 | Plant response rating, Ducksalad [8, 24]: 85 | Plant response rating, Ducksalad [8, 25]: 100 | Lambsquarters plant response rating [9, 19]: 100 | Lambsquarters plant response rating [9, 20]: 100 | Plant response rating, Lambsquarters ([9]; Preemergence): 100 | Lambsquarters plant response rating [9, 21]: 100 | Plant response rating, Rice [10, 24]: 45 | Plant response rating, Rice [10, 25]: 90 | Nightshade plant response rating [11, 19]: 100 | Nightshade plant response rating [11, 20]: 100 | Plant response rating, Nightshade ([11]; Preemergence): 100 | Nightshade plant response rating [11, 21]: 100 | Foxtail, Giant plant response rating [12, 19]: 100 | Plant response rating, Foxtail, Giant ([12]; Preemergence): 90 | Foxtail, Giant plant response rating [12, 21]: 100 | Plant response rating, Velvetleaf ([13]; Postemergence, 125 g ai/ha): 60 | Velvetleaf plant response rating [13, 22]: 70 | Velvetleaf plant response rating [13, 23]: 40 | Plant response rating, Velvetleaf ([13]; Preemergence, 500 g ai/ha): 100 | Crabgrass, Large plant response rating [14, 19]: 100 | Crabgrass, Large plant response rating [14, 20]: 100 | Plant response rating, Crabgrass, Large ([14]; Preemergence): 85 | Crabgrass, Large plant response rating [14, 21]: 100 | Foxtail, Green plant response rating [15, 19]: 100 | Foxtail, Green plant response rating [15, 20]: 100 | Plant response rating, Foxtail, Green ([15]; Preemergence): 100 | Foxtail, Green plant response rating [15, 21]: 100 | Oat, Wild plant response rating [16, 19]: 95 | Oat, Wild plant response rating [16, 20]: 100 | Plant response rating, Oat, Wild ([16]; Preemergence): 70 | Oat, Wild plant response rating [16, 21]: 100 | Ragweed plant response rating [17, 19]: 80 | Ragweed plant response rating [17, 20]: 80 | Plant response rating, Ragweed ([17]; Preemergence): 0 | Ragweed plant response rating [17, 21]: 100 | Kochia plant response rating [18, 19]: 100 | Kochia plant response rating [18, 20]: 100 | Plant response rating, Kochia ([18]; Preemergence): 100 | Kochia plant response rating [18, 21]: 100

Cn1nc(C(F)(F)F)c(CS(=O)(=O)c2ccc(Cl)c[n+]2[O-])c1OCC(F)(F)F [Compound 73]
Surinam Grass plant response rating [1, 20]: 80 | Plant response rating, Surinam Grass ([1]; Preemergence): 40 | Surinam Grass plant response rating [1, 21]: 80 | Velvetleaf plant response rating [2, 19]: 30 | Velvetleaf plant response rating [2, 20]: 40 | Plant response rating, Velvetleaf ([2]; Preemergence): 0 | Velvetleaf plant response rating [2, 21]: 70 | Bromegrass, Downy plant response rating [3, 19]: 60 | Bromegrass, Downy plant response rating [3, 20]: 60 | Plant response rating, Bromegrass, Downy ([3]; Preemergence, 31 g ai/ha, scale 0 to 100 (0 no effect, 100 complete control)): 0 | Bromegrass, Downy plant response rating [3, 21]: 100 | Plant response rating, Pigweed ([4]; Postemergence, 125 g ai/ha): 10 | Pigweed plant response rating [4, 22]: 60 | Pigweed plant response rating [4, 23]: 90 | Plant response rating, Pigweed ([4]; Preemergence, 500 g ai/ha): 100 | Johnsongrass plant response rating [5, 19]: 100 | Johnsongrass plant response rating [5, 20]: 100 | Plant response rating, Johnsongrass ([5]; Preemergence): 70 | Johnsongrass plant response rating [5, 21]: 100 | Cocklebur plant response rating [6, 19]: 0 | Cocklebur plant response rating [6, 20]: 0 | Plant response rating, Cocklebur ([6]; Preemergence): 0 | Cocklebur plant response rating [6, 21]: 0 | Plant response rating, Barnyardgrass ([7]; Postemergence, 125 g ai/ha): 70 | Barnyardgrass plant response rating [7, 22]: 80 | Barnyardgrass plant response rating [7, 23]: 90 | Plant response rating, Barnyardgrass ([7]; Preemergence, 500 g ai/ha): 90 | Plant response rating, Ducksalad [8, 24]: 70 | Plant response rating, Ducksalad [8, 25]: 85 | Lambsquarters plant response rating [9, 19]: 100 | Lambsquarters plant response rating [9, 20]: 100 | Plant response rating, Lambsquarters ([9]; Preemergence): 50 | Lambsquarters plant response rating [9, 21]: 100 | Plant response rating, Rice [10, 24]: 0 | Plant response rating, Rice [10, 25]: 20 | Nightshade plant response rating [11, 19]: 80 | Nightshade plant response rating [11, 20]: 80 | Plant response rating, Nightshade ([11]; Preemergence): 0 | Nightshade plant response rating [11, 21]: 85 | Foxtail, Giant plant response rating [12, 19]: 10 | Foxtail, Giant plant response rating [12, 20]: 80 | Plant response rating, Foxtail, Giant ([12]; Preemergence): 10 | Foxtail, Giant plant response rating [12, 21]: 80 | Plant response rating, Velvetleaf ([13]; Postemergence, 125 g ai/ha): 0 | Velvetleaf plant response rating [13, 22]: 50 | Velvetleaf plant response rating [13, 23]: 0 | Plant response rating, Velvetleaf ([13]; Preemergence, 500 g ai/ha): 60 | Crabgrass, Large plant response rating [14, 19]: 85 | Crabgrass, Large plant response rating [14, 20]: 85 | Plant response rating, Crabgrass, Large ([14]; Preemergence): 85 | Crabgrass, Large plant response rating [14, 21]: 95 | Foxtail, Green plant response rating [15, 19]: 70 | Foxtail, Green plant response rating [15, 20]: 100 | Plant response rating, Foxtail, Green ([15]; Preemergence): 70 | Oat, Wild plant response rating [16, 19]: 40 | Oat, Wild plant response rating [16, 20]: 60 | Plant response rating, Oat, Wild ([16]; Preemergence): 40 | Oat, Wild plant response rating [16, 21]: 90 | Ragweed plant response rating [17, 19]: 70 | Ragweed plant response rating [17, 20]: 95 | Plant response rating, Ragweed ([17]; Preemergence): 60 | Ragweed plant response rating [17, 21]: 100 | Kochia plant response rating [18, 19]: 100 | Kochia plant response rating [18, 20]: 100 | Plant response rating, Kochia ([18]; Preemergence): 60 | Kochia plant response rating [18, 21]: 100
